Patent EP4793274A1, “SALT AND CRYSTAL FORM OF KIF18A INHIBITOR COMPOUND, PREPARATION METHOD THEREFOR AND USE THEREOF” (Hubei Bio-Pharmaceutical Industrial Technological Institute …, priority 2023, dated 2025)
Structures can show the parent of a compound that is named as a salt. Where two headings read alike, the source gives them in different places.

Tests used:
[1] = Hygroscopicity by dynamic vapor sorption (DVS); type: physicochemical; settings: for vapor sorption values: 25 °C/80% RH
Protocol: Dynamic vapor sorption (DVS) curves were acquired on a DVS IntrInsic from Surface Measurement Systems (SMS). The relative humidity at 25 °C was corrected with the deliquescence points of LiCl, Mg(NO3)2, and KCl. Table A-5. DVS test parameters
The percentage changes in mass of the samples when the humidity changed (0% RH to 95% RH) at a constant temperature of 25 °C were collected. 157-166.

[2] = Solid state stability (XRPD and HPLC purity); type: physicochemical
Excerpt: 167-171. […] Table C-3. Summary of solid state stability evaluation

[3] = Dynamic solubility at 37 °C in H2O, SGF, FaSSIF and FeSSIF (HPLC concentration, pH of filtrate, XRPD of residual solid); type: physicochemical; settings: for S: solubility / solubility at 1 h / solubility at 2 h / solubility at 4 h / solubility at 24 h: feeding concentration 10 mg/mL; for FC: crystal form change: XRPD of residual solid; for pH: pH of filtrate; for solubility at 1 h / solubility at 2 h / solubility at 4 h / solubility at 24 h: read-out: S: solubility
Protocol: 0.82 mL of glacial acetic acid and 1.18 g of NaCl were added to a 100 mL volumetric flask and completely dissolved by addition of purified water.
The solubility of each sample in H2O, SGF, FaSSIF, and FeSSIF was determined at different time points (1 h, 2 h, 4 h, and 24 h). […] 137-156. […] Table C-2. Summary of dynamic solubility test results at 37 °C

[4] = Solubility at room temperature in water, SGF and FaSSIF (HPLC concentration, pH of filtrate, XRPD of residual solid); settings: for pH: pH of filtrate, listed as Crystal form B of sulfate
Protocol: 100 mg of NaCl and 50 mg of Triton X-100 were weighed into a 50 mL volumetric flask and then completely dissolved by addition of purified water. 816 µL of 1 M hydrochloric acid was added, and the pH was adjusted to 1.8 with 1 M hydrochloric acid or 1 M NaOH solution. The mixed solution was brought to the volume by addition of purified water.
340 mg of anhydrous NaH2PO4 and 620 mg of NaCl were weighed into a 100 mL volumetric flask, and then completely dissolved by addition of purified water. 55.44 µL of a 50% NaOH solution was then added, and the pH was adjusted to 6.5 with 1 M hydrochloric acid or 1 M NaOH solution. The mixed solution was brought to the volume by addition of purified water. Subsequently, 110 mg of SIF powder was weighed into a 50 mL volumetric flask and completely dissolved in the solution described above, and the mixed solution was brought to the volume.
Solids at a feeding concentration of 1 mg/mL (calculated based on free crystal form) were rotationally mixed with corresponding vehicles at room temperature. […] After sampling at each time point, the samples were centrifuged (at 10000 rpm) and filtered (through a 0.22 µm PTFE filter head), the HPLC concentrations and pH values of the filtrates were determined, and the centrifuged solid samples were subjected to XRPD analysis.

[5] = physchem
[6] = 80 °C/sealed, 1 day, listed as Crystal form B of sulfate
[7] = FaSSIF, 1 h, listed as Crystal form B of sulfate
[8] = FaSSIF, 2 h, listed as Crystal form B of sulfate
[9] = FaSSIF, 4 h, listed as Crystal form B of sulfate
[10] = FaSSIF, 24 h, listed as Crystal form B of sulfate
[11] = FeSSIF, 1 h, listed as Crystal form B of sulfate
[12] = FeSSIF, 2 h, listed as Crystal form B of sulfate
[13] = FeSSIF, 4 h, listed as Crystal form B of sulfate
[14] = FeSSIF, 24 h, listed as Crystal form B of sulfate
[15] = H2O, 1 h, listed as Crystal form B of sulfate
[16] = H2O, 24 h, listed as Crystal form B of sulfate

For `Cc1cc(-c2cnn(-c3ccc(NS(=O)(=O)CCO)cc3N3CCC4(CC3)CC4)c2)nc(N2CCC(F)(F)CC2)n1` [free crystal form D], the “crystal form after the DVS test (XRPD)” value ([1]; 25 °C, 0% RH to 95% RH) was “converted to the free crystal forms D + J”, the vapor sorption values [1] was 3.129% and the “crystal form after the stability test (XRPD)” value ([2]; 80 °C/sealed condition for 1 day) was “converted to the free crystal forms J + D”. For the same compound, the “S: solubility” value ([3]; FaSSIF, 1 h, 60 min) was 6.5 µg/mL, the “S: solubility” value ([3]; FaSSIF, 2 h, 120 min) was 6.5 µg/mL and the “S: solubility” value ([3]; FaSSIF, 4 h, 240 min) was 6.3 µg/mL. For the same compound, the “S: solubility” value ([3]; FaSSIF, 24 h, 1440 min) was 5 µg/mL, the “S: solubility” value ([3]; FeSSIF, 1 h, 60 min) was 16.2 µg/mL and the “S: solubility” value ([3]; FeSSIF, 2 h, 120 min) was 17.2 µg/mL. For the same compound, the “S: solubility” value ([3]; FeSSIF, 4 h, 240 min) was 15.4 µg/mL, the “S: solubility” value ([3]; FeSSIF, 24 h, 1440 min) was 15 µg/mL and the “S: solubility” value ([3]; H2O, 1 h, 60 min) was 0.1 µg/mL. For the same compound, the “S: solubility” value ([3]; H2O, 2 h, 120 min) was 0.1 µg/mL, the “S: solubility” value ([3]; H2O, 4 h, 240 min) was 0.2 µg/mL and the “S: solubility” value ([3]; SGF, 1 h, 60 min) was 6.2 µg/mL. The “S: solubility” value ([3]; SGF, 2 h, 120 min) was 5.7 µg/mL, the “S: solubility” value ([3]; SGF, 4 h, 240 min) was 5.9 µg/mL and the “S: solubility” value ([3]; SGF, 24 h, 1440 min) was 5.1 µg/mL. The “FC: crystal form change” value ([3]; FaSSIF, 1 h) was “No”, the “FC: crystal form change” value ([3]; FaSSIF, 2 h) was “No” and the “FC: crystal form change” value ([3]; FaSSIF, 4 h) was “No”. For the same compound, the “FC: crystal form change” value ([3]; FaSSIF, 24 h) was “No”, the “FC: crystal form change” value ([3]; FeSSIF, 1 h) was “No” and the “FC: crystal form change” value ([3]; FeSSIF, 2 h) was “No”. The “FC: crystal form change” value ([3]; FeSSIF, 4 h) was “No”, the “FC: crystal form change” value ([3]; FeSSIF, 24 h) was “No” and the “FC: crystal form change” value ([3]; H2O, 1 h) was “No”. The “FC: crystal form change” value ([3]; H2O, 2 h) was “No”, the “FC: crystal form change” value ([3]; H2O, 4 h) was “No” and the “FC: crystal form change” value ([3]; H2O, 24 h) was “No”. For the same compound, the “FC: crystal form change” value ([3]; SGF, 1 h) was “No”, the “FC: crystal form change” value ([3]; SGF, 2 h) was “No” and the “FC: crystal form change” value ([3]; SGF, 4 h) was “No”. The “FC: crystal form change” value ([3]; SGF, 24 h) was “No”, the pH ([3]; FaSSIF, 1 h) was 6.51 and the pH ([3]; FaSSIF, 2 h) was 6.53. For the same compound, the pH ([3]; FaSSIF, 4 h) was 6.55, the pH ([3]; FaSSIF, 24 h) was 6.49 and the pH ([3]; FeSSIF, 1 h) was 4.97. It also gave a pH ([3]; FeSSIF, 2 h) of 5.01, a pH ([3]; FeSSIF, 4 h) of 4.97 and a pH ([3]; FeSSIF, 24 h) of 4.96. It also gave a pH ([3]; H2O, 1 h) of 6.91, a pH ([3]; H2O, 2 h) of 7.64 and a pH ([3]; H2O, 4 h) of 7.88. It also gave a pH ([3]; H2O, 24 h) of 7.65, a pH ([3]; SGF, 1 h) of 1.26 and a pH ([3]; SGF, 2 h) of 1.38. It also gave a pH ([3]; SGF, 4 h) of 1.29 and a pH ([3]; SGF, 24 h) of 1.32.

In the case of `Cc1cc(-c2cnn(-c3ccc(NS(=O)(=O)CCO)cc3N3CCC4(CC3)CC4)c2)nc(N2CCC(F)(F)CC2)n1` [crystal form B of the sulfate], the “S: solubility” value ([4]; H2O, 2 h, feeding concentration 1 mg/mL) is reported as “<LOQ”, the pH ([4]; FaSSIF, 2 h) is reported as 6.3 and the pH ([4]; FaSSIF, 24 h) is reported as 6.2. For the same compound, the pH ([4]; H2O, 2 h) was 2.7, the pH ([4]; H2O, 24 h) was 2.5 and the pH ([4]; SGF, 2 h) was 1.8. For the same compound, the pH ([4]; SGF, 24 h) was 1.8, the vapor sorption values [1] was 0.445% and the “HPLC results Purity (area%)” value ([2]; 25 °C/60% RH/open, 1 week, listed as Crystal form B of sulfate) was 97.97 area%. The “HPLC results Purity (area%)” value ([2]; 40 °C/75% RH/open, 1 week, listed as Crystal form B of sulfate) was 97.98 area%, the “HPLC results Purity (area%)” value [2, 6] was 97.98 area% and the “HPLC results Relative to starting (%)” value [2, 6] was 100.0%. For the same compound, the “HPLC results Purity (area%)” value ([2]; Starting, listed as Crystal form B of sulfate) was 98.00 area%, the Crystal form ([2]; XRPD after 25 °C/60% RH/open, 1 week, listed as Crystal form B of sulfate) was “Crystal form B of sulfate” and the Crystal form ([2]; XRPD after 40 °C/75% RH/open, 1 week, listed as Crystal form B of sulfate) was “Crystal form B of sulfate”. The Crystal form ([2]; XRPD after 80 °C/sealed, 1 day, listed as Crystal form B of sulfate) was “Crystal form B of sulfate”, the solubility at 1 h ([3]; FaSSIF, 1 h) was 53.9 µg/mL and the solubility at 2 h ([3]; FaSSIF, 2 h) was 36.4 µg/mL. The solubility at 4 h ([3]; FaSSIF, 4 h) was 28.1 µg/mL, the solubility at 24 h ([3]; FaSSIF, 24 h) was 13.6 µg/mL and the solubility at 1 h ([3]; FeSSIF, 1 h) was 194 µg/mL. It also gave a solubility at 2 h ([3]; FeSSIF, 2 h) of 186 µg/mL, a solubility at 4 h ([3]; FeSSIF, 4 h) of 166 µg/mL and a solubility at 24 h ([3]; FeSSIF, 24 h) of 79 µg/mL. It also gave a solubility at 1 h ([3]; SGF, 1 h) of 147 µg/mL, a solubility at 2 h ([3]; SGF, 2 h) of 82.4 µg/mL and a solubility at 4 h ([3]; SGF, 4 h) of 18.1 µg/mL. For the same compound, the solubility at 24 h ([3]; SGF, 24 h) was 18.5 µg/mL, the “FC: crystal form change” value [3, 7] was “Yes” and the “FC: crystal form change” value [3, 8] was “Yes”. For the same compound, the “FC: crystal form change” value [3, 9] was “Yes”, the “FC: crystal form change” value [3, 10] was “Yes” and the “FC: crystal form change” value [3, 11] was “Yes”. The “FC: crystal form change” value [3, 12] was “Yes”, the “FC: crystal form change” value [3, 13] was “Yes” and the “FC: crystal form change” value [3, 14] was “Yes”. The “FC: crystal form change” value [3, 15] was “Yes”, the “FC: crystal form change” value ([3]; H2O, 2 h, listed as Crystal form B of sulfate) was “Yes” and the “FC: crystal form change” value ([3]; H2O, 4 h, listed as Crystal form B of sulfate) was “Yes”. For the same compound, the “FC: crystal form change” value [3, 16] was “Yes”, the “FC: crystal form change” value ([3]; SGF, 1 h, listed as Crystal form B of sulfate) was “Yes” and the “FC: crystal form change” value ([3]; SGF, 2 h, listed as Crystal form B of sulfate) was “Yes”. For the same compound, the “FC: crystal form change” value ([3]; SGF, 4 h, listed as Crystal form B of sulfate) was “Yes”, the “FC: crystal form change” value ([3]; SGF, 24 h, listed as Crystal form B of sulfate) was “Yes” and the pH [3, 7] was 2.06. It also gave a pH [3, 8] of 2.13, a pH [3, 9] of 2.07 and a pH [3, 10] of 2.08. For the same compound, the pH [3, 11] was 4.50, the pH [3, 12] was 4.49 and the pH [3, 13] was 4.48. It also gave a pH [3, 14] of 4.48, a pH [3, 15] of 1.50 and a pH [3, 16] of 1.56. The solubility at 1 h ([3]; water, H2O, 1 h) was 38.2 µg/mL, the solubility at 2 h ([3]; water, H2O, 2 h) was 18 µg/mL and the solubility at 4 h ([3]; water, H2O, 4 h) was 11.1 µg/mL. It also gave a solubility at 24 h ([3]; water, H2O, 24 h) of 3 µg/mL, a solubility at 2 h ([5]; fassif) of 61.6 µg/mL and a solubility at 24 h ([5]; fassif) of 33.8 µg/mL. For the same compound, the solubility at 2 h ([5]; sgf) was 54.5 µg/mL, the solubility at 24 h ([5]; sgf) was 25 µg/mL and the solubility at 24 h ([5]; water) was 0.1 µg/mL.
